Our source for the IC50 values is patent US20170305861A1, “HETEROARYL COMPOUNDS COMPRISING NITROGEN AND USE THEREOF” (ImmunoMet Therapeutics, Inc, priority 2016, published 2017).

Assay [1] has as its system A549 cell lines (lung cancer cell lines). Description: Oxygen Consumption Rate (OCR) of cells, corrected for cell viability (Cyquant). It is filed as cell-based. As to conditions: Homo sapiens; A549 cells, 24 h drug treatment, OCR value reflecting cell viability; read-out: OCR IC50. As for the experimental part:
The compounds synthesized by the methods disclosed in the Examples of the present invention have been measured on oxygen consumption rate and extracellular oxidation by the methods disclosed in the Test Examples below.
3×10^3 cells from A549 cell lines (purchased from ATCC-American Type Culture Collection), which are lung cancer cell lines, were placed on XF96 cell culture plates using RPMI1640 medium, and cultured at 37° C. in a 5% CO2 condition for 16 hours or more for attachment.
After 16 hours, the cells were treated with the drug at six different concentrations between 0 μM and 20 μM. After 24 hours, the existing medium was removed, and XF assay medium (15 mM D-Glucose, 15 mM sodium pyruvate, 4 mM L-Glutamine, pH 7.4) was added. The cells were retreated with the drug, and additionally cultured in Prep station at 37° C. in a non-CO2 condition for 1 hour. During the one-hour culture in the Prep station, a sensor cartridge was placed and calibrated for 20 minutes, and a plate with cells was placed to analyze the OCR. After the analysis was completed, XF96 plate was measured for cell viability using Cyquant assay, which measures the amount of intracellular DNA, in the following method. XF assay medium and the drug were removed, and the cells were placed in a cryogenic refrigerator (−80° C.) for at least 4 hours to be frozen. After the plate was made to be at room temperature, a solution where a lysis buffer and fluorescent GR dye were mixed was placed by 200 μL per well. After 20-minute reaction at room temperature, […] was measured between […] to calculate cell viability. A measured value of a well untreated with the drug was converted to 100% by reflecting cell viability to the OCR value. Concentration of a drug which inhibits the OCR value reflecting cell viability by 50% was calculated.

The next assay relates to SK-MEL-28 cells. The assay is described as follows: Inhibitory effect of cancer cell proliferation, MTT. It is filed as cell-based. As to conditions: Homo sapiens. As for the experimental part:
The compounds prepared in the above Examples were evaluated for the inhibitory effect of cancer cell proliferation according to the method described in the following Test Example.
SK-MEL-28 cells derived from human melanoma were used, and the concentration (cell growth inhibitory concentration, IC50) at which cell growth was inhibited to 50% was measured using MTT reagent (3-(4,5-dimethylthiazole-2-yl)-2,5-[…] bromide) to confirm the inhibitory effect of cancer cell proliferation of the drugs synthesized in Examples 1 to 84.
First, SK-MEL-28 cells were cultured in 96-well plates at a cell number of about 1,250 in RPMI-1640 medium containing 11.1 mM glucose and 10% calf blood serum or 0.75 mM glucose and 10% calf blood serum, and were cultured for 16 hours. […] After treatment of the compound, MTT was added to the culture medium to confirm living cells and further cultured for 2 hours. The resulting formazane crystal was dissolved using dimethyl sulfoxide, and the absorbance of the solution was measured at 555 nm. After culturing for 72 hours, the number of viable cells in the well plate treated with the compounds synthesized in the Examples relative to the number of cells cultured in the well plate without treatment of the compounds was expressed as cell viability (%) according to each treatment concentration. By using this, a cell viability curve graph was prepared, and the inhibitory effect of cancer cell proliferation was confirmed by calculating the concentration of the compound whose growth was inhibited to 50% (IC50).

Setting [2] is: SK-MEL-28, 0.75 mM glucose, 72 hours, MTT, read-out: SK-MEL-28 0.75 mM glucose Cell viability (IC50 μM).
Setting [3] is: SK-MEL-28, 11.1 mM glucose, 72 hours, MTT, read-out: SK-MEL-28 11.1 mM glucose Cell viability (IC50 μM).

The structures appear in SMILES notation. Like-named read-outs stand apart in the source and are kept apart here.

The IC50 is the midpoint of a concentration-inhibition curve. `Nc1cc[n+](CCc2ccc(Cl)c(Cl)c2)cc1` [Example 19, 4-Amino-1-(3,4-dichlorophenethyl)pyridinium chloride]: the IC50 in assay [1] amounted to 0.5 µM; with SK-MEL-28 cells (setting [2]), 5.9 µM; in the assay on SK-MEL-28 cells (setting [3]), 8.8 µM.
On to `CC(C)(C)Nc1cc[n+](Cc2ccccc2)cc1` [Example 69, 1-benzyl-4-(tert-butylamino)pyridinium chloride], for which the 50% inhibitory concentration (IC50) worked out at 14.6 µM in the assay on SK-MEL-28 cells (setting [2]) and 132 µM with SK-MEL-28 cells (setting [3]).
As to `c1ccc(C[n+]2ccc(N3CCCCC3)cc2)cc1` [Example 59, 1-Benzyl-4-(piperidin-1-yl)pyridinium chloride], the concentration for half-maximal inhibition (IC50) worked out at 2.8 µM in assay [1], 2.8 µM with SK-MEL-28 cells (setting [2]) and 33.4 µM with SK-MEL-28 cells (setting [3]).
Consider `Cc1c[n+](Cc2ccccc2)ccc1N` [Example 43, 4-Amino-3-methyl-1-benzylpyridinium chloride], for which the figures for the IC50 (in assay [1]; in the assay with SK-MEL-28 cells (setting [2]); with SK-MEL-28 cells (setting [3])) were 0.9 µM, 14.4 µM and 45.5 µM, respectively.
As for `c1ccc(C[n+]2ccc(N3CCC3)cc2)cc1` [Example 66, 4-(Azetidin-1-yl)-1-benzylpyridinium chloride], the 50% inhibitory concentration (IC50) in assay [1] was found to be 5.2 µM; with SK-MEL-28 cells (setting [2]), 6.1 µM; in the assay with SK-MEL-28 cells (setting [3]), 77 µM.
On the same counts, the results for `Nc1cc[n+](CC2CCCCC2)cc1` [Example 46, 4-Amino-1-(cyclohexylmethyl)pyridinium bromide] are 0.8 µM, 7.9 µM and 49.6 µM.
As for `CN(C)c1cc[n+](CC2CC2)cc1` [Example 42, 1-(Cyclopropylmethyl)-4-(dimethylamino)pyridinium chloride], the half-maximal inhibitory concentration (IC50) in assay [1] was determined as 1.5 µM; in the assay on SK-MEL-28 cells (setting [2]) it was 35 µM; in the assay with SK-MEL-28 cells (setting [3]) it was 199 µM.
In the case of `Nc1cc[n+](Cc2ccccc2)cc1` [Example 20, 4-Amino-1-benzylpyridinium chloride], the IC50 in assay [1] is 1.8 µM; in the assay on SK-MEL-28 cells (setting [2]) it was 14.7 µM; in the assay with SK-MEL-28 cells (setting [3]), 143 µM.
Regarding `Nc1cc[n+](CCc2ccccc2)c(Br)c1` [Example 7, 4-Amino-2-bromo-1-phenethylpyridinium chloride], the IC50 came to 0.4 µM in assay [1], 20.7 µM in the assay with SK-MEL-28 cells (setting [2]) and 16.8 µM with SK-MEL-28 cells (setting [3]).
On the same counts, the results for `Nc1cc[n+](CC2CC2)c(F)c1` [Example 39, 4-Amino-1-(cyclopropylmethyl)-2-fluoropyridinium chloride] are 2.7 µM, 45.3 µM and 76.5 µM.
On the same counts, the results for `c1csc(C[n+]2ccc(N3CCCC3)cc2)c1` [Example 68, 4-(Pyrrolidin-1-yl)-1-(thiophen-2-ylmethyl)pyridinium chloride] are 0.8 µM, 1.7 µM and 38.5 µM.
For the compound `CNc1cc[n+](Cc2ccccc2)cc1` [Example 34, 1-Benzyl-4-(methylamino)pyridinium chloride], the results for the half-maximal inhibitory concentration (IC50) (in assay [1]; in the assay with SK-MEL-28 cells (setting [2]); in the assay on SK-MEL-28 cells (setting [3])) were 1.1 µM, 7.9 µM and 101 µM, respectively.
As for `COc1cc(N)cc[n+]1Cc1ccccc1` [Example 45, 4-Amino-1-benzyl-2-methoxypyridinium chloride], the half-maximal inhibitory concentration (IC50) in assay [1] stood at 5 µM; with SK-MEL-28 cells (setting [2]), 16.6 µM; in the assay on SK-MEL-28 cells (setting [3]), 81.4 µM.
For the compound `Cc1ccc(C[n+]2ccc(N3CCCC3)cc2)s1` [Example 79, 1-((5-Methylthiophen-2-yl)methyl)-4-(pyrrolidin-1-yl)pyridinium chloride], the IC50 in assay [1] was 0.8 µM; with SK-MEL-28 cells (setting [2]) it was 1.16 µM; with SK-MEL-28 cells (setting [3]), 30.7 µM.
Turning to `Nc1scc[n+]1CCc1ccccc1` [Example 14, 2-Amino-3-phenethylthiazol-3-ium iodide], the half-maximal inhibitory concentration (IC50) with SK-MEL-28 cells (setting [2]) was 154 µM; in the assay on SK-MEL-28 cells (setting [3]) it was 277 µM.
On to `c1ccc(CC[n+]2ccc(N3CCCC3)cc2)cc1` [Example 55, 1-Phenethyl-4-(pyrrolidin-1-yl)pyridinium chloride], for which the IC50 was determined as 3.1 µM in assay [1], 0.1 µM in the assay with SK-MEL-28 cells (setting [2]) and 45.9 µM in the assay with SK-MEL-28 cells (setting [3]).
As for `Nc1cc[n+](CCc2ccccc2)c(C2CC2)c1` [Example 15, 4-amino-2-cyclopropyl-1-phenethylpyridinium iodide], the concentration for half-maximal inhibition (IC50) stood at 2.3 µM in assay [1], 6.8 µM with SK-MEL-28 cells (setting [2]) and 47 µM with SK-MEL-28 cells (setting [3]).
For the compound `CNc1cc[n+](CCc2ccccc2)cc1` [Example 33, 4-(Methylamino)-1-phenethylpyridinium chloride], the IC50 was found to be 1.5 µM in assay [1], 7.7 µM in the assay with SK-MEL-28 cells (setting [2]) and 102 µM with SK-MEL-28 cells (setting [3]).
`c1ccc(C[n+]2ccc(N3CCCCCC3)cc2)cc1` [Example 60, 4-(Azepan-1-yl)-1-benzylpyridinium chloride]: the IC50 in assay [1] was found to be 3.3 µM; in the assay with SK-MEL-28 cells (setting [2]), 20 µM; with SK-MEL-28 cells (setting [3]) it was 24.1 µM.
On the same counts, the results for `Nc1cc[n+](CCc2ccccc2)c(F)c1` [Example 18, 4-amino-2-fluoro-1-phenethylpyridinium chloride] are 0.6 µM, 10.7 µM and 16.9 µM.
For the compound `Nc1cc[n+](CC2CC2)cn1` [Example 73, 4-Amino-1-(cyclopropylmethyl)pyrimidin-1-ium chloride], the IC50 amounted to 169 µM in the assay on SK-MEL-28 cells (setting [2]) and 358 µM in the assay on SK-MEL-28 cells (setting [3]).
For `c1ccc(C[n+]2ccc(N3CCCC3)cc2)cc1` [Example 54, 1-Benzyl-4-(pyrrolidin-1-yl)pyridinium chloride], the 50% inhibitory concentration (IC50) in assay [1] was 1.1 µM; in the assay with SK-MEL-28 cells (setting [2]) it was 3.4 µM; in the assay on SK-MEL-28 cells (setting [3]), 29.7 µM.
As to `c1ccc(CC[n+]2ccc(N3CCOCC3)cc2)cc1` [Example 51, 4-Morpholino-1-phenethylpyridinium chloride], the values for the IC50 (in assay [1]; with SK-MEL-28 cells (setting [2]); with SK-MEL-28 cells (setting [3])) were 3.1 µM, 29.1 µM and 201 µM, respectively.
For the compound `Nc1cc[n+](Cc2ccc(F)cc2)cc1` [Example 49, 4-Amino-1-(4-fluorobenzyl)pyridinium bromide], the half-maximal inhibitory concentration (IC50) stood at 2.4 µM in assay [1], 10.3 µM with SK-MEL-28 cells (setting [2]) and 54.5 µM in the assay on SK-MEL-28 cells (setting [3]).
On the same counts, the results for `Nc1cc[n+](CCCc2ccccc2)c(F)c1` [Example 24, 4-Amino-2-fluoro-1-(3-phenylpropyl)pyridinium chloride] are 0.8 µM, 4.4 µM and 16.8 µM.
In the case of `Nc1cc[n+](Cc2ccc(Cl)c(Cl)c2)c(F)c1` [Example 35, 4-Amino-1-(3,4-dichlorobenzyl)-2-fluoropyridinium chloride], the results for the concentration for half-maximal inhibition (IC50) (in assay [1]; in the assay with SK-MEL-28 cells (setting [2]); in the assay on SK-MEL-28 cells (setting [3])) were 0.5 µM, 5 µM and 7.5 µM, respectively.
Consider `Nc1cc[n+](Cc2ccc[se]2)cn1` [Example 74, 4-Amino-1-(selenophen-2-ylmethyl)pyrimidin-1-ium chloride], for which the IC50 with SK-MEL-28 cells (SK-MEL-28, 72 h, read-out: SK-MEL-28 0.75 mM glucose Cell viability (IC50 μM)) was 74.4 µM; in the assay with SK-MEL-28 cells (SK-MEL-28, 72 h, read-out: SK-MEL-28 11.1 mM glucose Cell viability (IC50 μM)), 243 µM.
Regarding `Nc1cc[n+](Cc2ccccc2)c(N)c1` [Example 29, 2,4-Diamino-1-benzylpyridinium chloride], the half-maximal inhibitory concentration (IC50) in assay [1] was 5.3 µM; with SK-MEL-28 cells (setting [2]), 38.5 µM; in the assay on SK-MEL-28 cells (setting [3]), 162 µM.
Regarding `c1ccc(C[n+]2ccc(NC3COC3)cc2)cc1` [Example 67, 1-Benzyl-4-(oxetan-3-ylamino)pyridinium chloride], the IC50 worked out at 131 µM in the assay on SK-MEL-28 cells (setting [2]) and 545 µM in the assay with SK-MEL-28 cells (setting [3]).
Regarding `FC1(F)CCN(c2cc[n+](Cc3ccccc3)cc2)CC1` [Example 65, 1-benzyl-4-(4,4-difluoropiperidin-1-yl)pyridinium chloride], the IC50 with SK-MEL-28 cells (setting [2]) amounted to 28.6 µM; with SK-MEL-28 cells (setting [3]), 215 µM.
As to `COc1ccc2cc3[n+](cc2c1OC)CCc1cc2c(cc1-3)OCO2` [Berberine, reference compound], the IC50 in assay [1] was found to be 4.6 µM.
